Columns and labels:
[1] = biological target: T1, bovine mitochondrial complex I (CxI-ND) (Bos taurus, UniProt P03887+P03898+P17694+P42026); test: NADH:dQ oxidoreductase activity, […]-380 nm; format: biochemical; conditions: DDM-solubilised enzyme; 200 µM dQ, 200 µM NADH, 0.15% asolectin/CHAPS; pH 7.5, 32 °C; piericidin-sensitive rate
T1 construct: gene NDUFS2; native 45-subunit complex (14 core, 31 supernumerary); NDUFS2 residue 129 modelled as Arg, NDUFA10 residue 255 as Lys; human subunit nomenclature; with NADH dehydrogenase [ubiquinone] flavoprotein 1, mitochondrial; NADH dehydrogenase [ubiquinone] flavoprotein 2, mitochondrial; NADH-ubiquinone oxidoreductase 75 kDa subunit, mitochondrial; NADH dehydrogenase [ubiquinone] iron-sulfur protein 3, mitochondrial; NADH dehydrogenase [ubiquinone] iron-sulfur protein 8, mitochondrial; NADH-ubiquinone oxidoreductase chain 2; NADH-ubiquinone oxidoreductase chain 3; NADH-ubiquinone oxidoreductase chain 4; NADH-ubiquinone oxidoreductase chain 4L; NADH-ubiquinone oxidoreductase chain 5; NADH-ubiquinone oxidoreductase chain 6

[2] = biological target: T1, bovine mitochondrial complex I (CxI-ND); test: cryo-EM structure, […] Å; conditions: oxidised resting enzyme in nanodiscs, active state; Q-binding channel between NDUFS2, NDUFS7 and ND1; pH 7.5

For CCCCCCCCCCC1=C(C)C(=O)C(OC)=C(OC)C1=O [dQ, decylubiquinone], the “NADH:dQ oxidoreductase activity, 340-380 nm” value [1] was “piericidin-sensitive NADH:dQ oxidoreductase activity of the DDM-solubilised enzyme before reconstitution”.

With COC1=C(OC)C(=O)C(C/C=C(\C)CC/C=C(\C)CC/C=C(\C)CC/C=C(\C)CC/C=C(\C)CC/C=C(\C)CC/C=C(\C)CC/C=C(\C)CC/C=C(\C)CCC=C(C)C)=C(C)C1=O [Q10, ubiquinone-10] the “cryo-EM structure, 2.84 Å” value [2] was “In active-Q10, the Q10 density occupies the entirety of the channel”.
